The results in this text go back to patent publication US11096980B2, “Method of using glycyrrhiza plant-based preparation to reduce toxic effect of polypeptide fungitoxin” (priority 2016, dated 2021).

The data set deals with IPEC-J2 cells. Kind of data set: TEER cell culture assay: protective effect against polypeptide fungitoxins. The following applies: for TEER value after addition of toxin (negative control): toxin 0.2-10 μM added on day 8. In kind it is cell-based, porcine. The procedure:
In order to test the correlations of polypeptide fungitoxins on epithelial tissue under controlled conditions, in vitro studies were performed. Therein, well-characterized test systems based on cell cultures and described in the literature were employed. For feed additives, epithelial cells from the respective organ in question, e.g. in the present case IPEC-J2 cells from the porcine intestine, were preferred. The used epithelial cells from the porcine intestine offer the advantage of being non-transformed cells still having all the important properties of normal intestinal cells and large physiological similarities such as the formation of viable tight junction proteins, which are above all essential for the intestinal barrier, as well as the expression of characteristic enzymes and transport systems (e.g. P-glycoprotein, cytochrome P450 3A4, vit. B 12 transporters etc.).
For the in vitro examinations of a Glycyrrhiza dry extract, the latter was extracted once again, thus producing a secondary Glycyrrhiza extract. The secondary Glycyrrhiza extract was prepared in that 1 g of the Glycyrrhiza dry extract and 9 ml 70% ethanol was each weighed in, mixed, and shaken at 700 rpm for one hour at room temperature. After this, the solution was centrifuged, and the liquid supernatant was sterile filtered using a 0.2 μm filter and further diluted with IPEC-J2 medium. The secondary Glycyrrhiza extract was tested in vitro in the following concentrations: 250 μg, 500 μg and 1,000 μg Glycyrrhiza dry extract per ml medium in the test formulation, in the following also referred to as 250, 500 and 1,000 μg/ml secondary Glycyrrhiza extract.
The TEER technique described by Geens and Niewold (Cytotechnology, 2011, 63, 415 et seq.) was used in an adapted form. In this in vitro model, intestinal porcine epithelial cells (IPEC-J2, DSMZ No.: ACC 701, Passage 1-15) are cultivated in an insert on a permeable polyester membrane (1.12 cm^2 surface area, 0.4 μm pore size, 12 mm membrane diameter) and differentiated in the incubator for a period of 8 days at 39° C. and 5% CO2. Per insert, 1×10^∧5 cells in 0.5 ml medium are applied to the respective membrane. During said differentiation period, the used medium was aspirated every other day and replaced with fresh medium. The insert was fixed in a 12-well cell culture plate, and the cells were supplied with 1.5 ml medium from below (basolateral compartment) and with 0.5 ml medium from above (apical compartment). […]
Differentiated cells form a cell barrier, being strongly interconnected by tight junction proteins. […] The intactness of the cell barrier is measured by means of a volt-ohmmeter: The electrical resistance between the two compartments is referred to as TEER (transepithelial electrical resistance) value and represented in kOhm×cm^2. […]

For `CC[C@H](C)[C@H]1C(=O)O[C@H](C(C)C)C(=O)N(C)[C@@H]([C@@H](C)CC)C(=O)O[C@H](C(C)C)C(=O)N(C)[C@@H]([C@@H](C)CC)C(=O)O[C@H](C(C)C)C(=O)N1C` [enniatin A], the “TEER mean value (toxin)” value (enniatin A 5 μM alone (negative control), after 24 hours) was 3.928 kOhm×cm^2.
In the case of `CC1(C)[C@@H](O[C@H]2O[C@H](C(=O)O)[C@@H](O)[C@H](O)[C@H]2O[C@@H]2O[C@H](C(=O)O)[C@@H](O)[C@H](O)[C@H]2O)CC[C@]2(C)[C@H]3C(=O)C=C4[C@@H]5C[C@@](C)(C(=O)O)CC[C@]5(C)CC[C@@]4(C)[C@]3(C)CC[C@@H]12` [glycyrrhizic acid], the “Effect in the TEER test against enniatins A, A1, B, B1, beauvericin and apicidin relative to the negative controls” value (70 μg/ml (corresponding to 1.000 μg/ml secondary Glycyrrhiza extract)) was “no positive effect”.
Take `CCC(=O)CCCCC[C@@H]1NC(=O)[C@H]2CCCCN2C(=O)[C@H]([C@@H](C)CC)NC(=O)[C@H](Cc2cn(OC)c3ccccc23)NC1=O` [apicidin]: the “TEER value after addition of toxin (negative control)” value is given as “lowered”.
The same measure, in the same setting: the result for enniatins reads “lowered”.
